Laboratory results reported in patent US7595401B2, “Therapeutic compounds and their use in cancer” (Myriad Pharmaceuticals, Inc., priority 2006, dated 2009).

Test system: purified human Hsp90
Assay: Binding Assay: fluorescence polarization with BODIPY-labeled geldanamycin
Conditions: 5 μM compound, BODIPY-GM 10 nM, Hsp90 30 nM
Experimental: Compound binding to purified Hsp90 was monitored using BODIPY-labeled geldanamycin (BODIPY-GM) in a fluorescence polarization assay adapted from Kim et al. (Journal of Biomolecular Screening 2004, 9(5):375-381). Compound dilutions (in 100% DMSO) were added to black-bottom 96-well plates (Greiner; 2% DMSO final), and equal volumes of BODIPY-GM (10 nM final) and purified human Hsp90 (Stressgen, SPP-770; 30 nM final) in assay buffer (20 mM HEPES-KOH pH 7.3, 50 mM KCl, 5 mM MgCl2, 20 mM Na2MoO4, 0.01% NP-40, 0.1 mg/mL bovine gamma globulin [Invitrogen, P2045], 2 mM DTT) were added sequentially to yield a final volume of 50 microliters. Plates were incubated overnight at room temperature. Parallel and perpendicular fluorescence measurements were read (LJL BioSystems Analyst AD plate reader) with excitation/emission wavelengths of 485/530 nm. Background fluorescence (buffer only) was subtracted, and fluorescence polarization (FP) values, expressed in mP units, were calculated from parallel and perpendicular fluorescence readings as follows: FP=(parallel−perpendicular)/(parallel+perpendicular)*1000
Percent inhibition was calculated by normalizing the FP values to those obtained in parallel reactions containing DMSO and subtracting these normalized values from 100%. Intrinsic compound fluorescence was independently monitored, and FP data points confounded by compound fluorescence were excluded from the analysis.

Row | Structure (SMILES) | % Inhibition at 5 μM Compound Concentration [%]
1 | Nc1ncnc2c1nc(Sc1ccc3c(c1)OCO3)n2CCn1cccc1 [Example 49, 8-(Benzo[1,3]dioxol-5-ylsulfanyl)-9-(2-pyrrol-1-yl-ethyl)-9H-purin-6-ylamine] | 55
2 | Nc1ncn(CCn2cccc2)c2nc(Sc3ccc4c(c3)OCO4)nc1-2 [Example 50, 8-(benzo[1,3]dioxol-5-ylsulfanyl)-3-(2-pyrrol-1-yl-ethyl)-3H-purin-6-ylamine] | 3
3 | Nc1ncnc2c1nc(Sc1ccc3c(c1)OCO3)n2CCCn1cccc1 [Example 51, 8-(Benzo[1,3]dioxol-5-ylsulfanyl)-9-(3-pyrrol-1-yl-propyl)-9H-purin-6-ylamine] | 52
4 | Nc1ncn(CCCn2cccc2)c2nc(Sc3ccc4c(c3)OCO4)nc1-2 [Example 52, 8-(benzo[1,3]dioxol-5-ylsulfanyl)-3-(3-pyrrol-1-yl-propyl)-3H-purin-6-ylamine] | 0
5 | Nc1ncn(CCc2ccccc2Cl)c2nc(Sc3cc4c(cc3Br)OCO4)nc1-2 [Example 54, 8-(6-bromo-benzo[1,3]dioxol-5-ylsulfanyl)-3-[2-(2-chloro-phenyl)-ethyl]-3H-purin-6-ylamine] | 13
6 | CCC(Cn1cnc(N)c2nc(Sc3cc4c(cc3Br)OCO4)nc1-2)c1ccccc1 (stereo not drawn) [Example 58, 8-(6-bromo-benzo[1,3]dioxol-5-ylsulfanyl)-3-(2-phenyl-butyl)-3H-purin-6-ylamine] | 8
7 | COc1ccc(C2(Cn3cnc(N)c4nc(Sc5cc6c(cc5Br)OCO6)nc3-4)CC2)cc1 [Example 60, 8-(6-bromo-benzo[1,3]dioxol-5-ylsulfanyl)-3-[1-(4-methoxy-phenyl)-cyclopropylmethyl]-3H-purin-6-ylamine] | 30

Continued, values first:

Row | % Inhibition at 5 μM Compound Concentration [%] | Structure (SMILES)
8 | 0 | COc1ccc(OC)c(Sc2nc3c(N)ncn(CCc4ccc(Cl)cc4Cl)c-3n2)c1 [Example 28, 3-[2-(2,4-dichloro-phenyl)-ethyl]-8-(2,5-dimethoxy-phenyl-sulfanyl)-3H-purin-6-ylamine]
9 | 16 | COc1ccc(OC)c(Sc2nc3c(N)ncn(CCc4ccccc4F)c-3n2)c1 [Example 30, 8-(2,5-dimethoxy-phenylsulfanyl)-3-[2-(2-fluoro-phenyl)-ethyl]-3H-purin-6-ylamine]
10 | 3 | COc1ccc(OC)c(Sc2nc3c(N)ncn(CCc4c(C)cc(C)cc4C)c-3n2)c1 [Example 56, 8-(2,5-dimethoxy-phenylsulfanyl)-3-[2-(2,4,6-trimethyl-phenyl)-ethyl]-3H-purin-6-ylamine]

Same assay, conditions: BODIPY-GM 10 nM, Hsp90 30 nM

Row | Structure (SMILES) | IC50 [µM]
11 | COc1cc(Sc2nc3c(N)ncn(CCc4ccc(Cl)cc4)c-3n2)cc(OC)c1OC [Example 32, 3-[2-(4-chloro-phenyl)-ethyl]-8-(3,4,5-trimethoxy-phenylsulfanyl)-3H-purin-6-ylamine] | > 10
12 | Nc1ncn(CCc2ccccc2)c2nc(Sc3cc4c(cc3I)OCO4)nc1-2 [Example 34, 8-(6-iodo-benzo[1,3]dioxol-5-ylsulfanyl)-3-phenethyl-3H-purin-6-ylamine] | > 10
13 | Nc1ncnc2c1nc(Sc1cc3c(cc1Br)OCO3)n2CCc1ccc(Cl)cc1F [Example 39, 8-(6-Bromo-benzo[1,3]dioxol-5-ylsulfanyl)-9-[2-(4-chloro-2-fluorophenyl)-ethyl]-9H-purin-6-ylamine] | 0.23
14 | Nc1ncn(CCc2ccc(Cl)cc2F)c2nc(Sc3cc4c(cc3Br)OCO4)nc1-2 [Example 40, 8-(6-bromo-benzo[1,3]dioxol-5-ylsulfanyl)-3-[2-(4-chloro-2-fluoro-phenyl)-ethyl]-3H-purin-6-ylamine] | > 10
15 | Nc1ncnc2c1nc(Sc1cc3c(cc1Br)OCO3)n2CCc1c(F)c(F)c(F)c(F)c1F [Example 41, 8-(6-Bromo-benzo[1,3]dioxol-5-ylsulfanyl)-9-(2-pentafluorophenyl-ethyl)-9H-purin-6-ylamine] | 0.5
16 | Nc1ncn(CCc2c(F)c(F)c(F)c(F)c2F)c2nc(Sc3cc4c(cc3Br)OCO4)nc1-2 [Example 42, 8-(6-bromo-benzo[1,3]dioxol-5-ylsulfanyl)-3-(2-pentafluorophenyl-ethyl)-3H-purin-6-ylamine] | > 5
17 | Nc1ncnc2c1nc(Sc1cc3c(cc1Br)OCO3)n2CCCc1ccccc1 [Example 43, 8-(6-Bromo-benzo[1,3]dioxol-5-ylsulfanyl)-9-(3-phenyl-propyl)-9H-purin-6-ylamine] | 0.7
18 | Nc1ncn(CCCc2ccccc2)c2nc(Sc3cc4c(cc3Br)OCO4)nc1-2 [Example 44, 8-(6-bromo-benzo[1,3]dioxol-5-ylsulfanyl)-3-(3-phenyl-propyl)-3H-purin-6-ylamine] | 27
19 | COc1cc(Sc2nc3c(N)ncn(CCc4ccccc4)c-3n2)cc(OC)c1OC [Example 46, 3-phenethyl-8-(3,4,5-trimethoxy-phenylsulfanyl)-3H-purin-6-ylamine] | > 10
20 | COc1cc(Sc2nc3c(N)ncn(CCCc4ccccc4)c-3n2)cc(OC)c1OC [Example 48, 3-(3-phenyl-propyl)-8-(3,4,5-trimethoxy-phenylsulfanyl)-3H-purin-6-ylamine] | > 10
21 | Nc1ncnc2c1nc(Sc1ccc3c(c1)OCO3)n2CCn1cccc1 [Example 49, 8-(Benzo[1,3]dioxol-5-ylsulfanyl)-9-(2-pyrrol-1-yl-ethyl)-9H-purin-6-ylamine] | 1.2
22 | Nc1ncnc2c1nc(Sc1ccc3c(c1)OCO3)n2CCCn1cccc1 [Example 51, 8-(Benzo[1,3]dioxol-5-ylsulfanyl)-9-(3-pyrrol-1-yl-propyl)-9H-purin-6-ylamine] | 1.5
23 | Nc1ncnc2c1nc(Sc1cc3c(cc1Br)OCO3)n2CCc1ccccc1Cl [Example 53, 8-(6-Bromo-benzo[1,3]dioxol-5-ylsulfanyl)-9-[2-(2-chloro-phenyl)-ethyl]-9H-purin-6-ylamine] | 0.045
24 | CCC(Cn1c(Sc2cc3c(cc2Br)OCO3)nc2c(N)ncnc21)c1ccccc1 (stereo not drawn) [Example 57, 8-(6-Bromo-benzo[1,3]dioxol-5-ylsulfanyl)-9-(2-phenyl-butyl)-9H-purin-6-ylamine] | 0.4
25 | COc1ccc(C2(Cn3c(Sc4cc5c(cc4Br)OCO5)nc4c(N)ncnc43)CC2)cc1 [Example 59, 8-(6-Bromo-benzo[1,3]dioxol-5-ylsulfanyl)-9-[1-(4-methoxy-phenyl)-cyclopropylmethyl]-9H-purin-6-ylamine] | > 25
26 | COc1ccc(OC)c(Sc2nc3c(N)ncn(CC4(c5ccc(Cl)cc5)CCC4)c-3n2)c1 [Example 62, 3-[1-(4-chloro-phenyl)-cyclobutylmethyl]-8-(2,5-dimethoxy-phenylsulfanyl)-3H-purin-6-ylamine] | > 10

Second part, the compound after the results:

Row | IC50 [µM] | Structure (SMILES)
27 | 0.15 | COc1ccc(OC)c(Sc2nc3c(N)ncnc3n2CCc2ccccc2F)c1 [Example 29, 8-(2,5-Dimethoxy-phenylsulfanyl)-9-[2-(2-fluoro-phenyl)-ethyl]-9H-purin-6-ylamine]
28 | > 10 | COc1ccc(OC)c(Sc2nc3c(N)ncn(CCc4ccccc4F)c-3n2)c1 [Example 30, 8-(2,5-dimethoxy-phenylsulfanyl)-3-[2-(2-fluoro-phenyl)-ethyl]-3H-purin-6-ylamine]
29 | > 10 | COc1cc(Sc2nc3c(N)ncnc3n2CCc2ccc(Cl)cc2)cc(OC)c1OC [Example 31, 9-[2-(4-Chloro-phenyl)-ethyl]-8-(3,4,5-trimethoxy-phenylsulfanyl)-9H-purin-6-ylamine]
30 | 0.017 | Nc1ncnc2c1nc(Sc1cc3c(cc1I)OCO3)n2CCc1ccccc1 [Example 33, 8-(-6-Iodo-benzo[1,3]dioxol-5-ylsulfanyl)-9-phenethyl-9H-purin-6-ylamine]
31 | 0.8 | COc1cccc(CCn2c(Sc3cc(OC)ccc3OC)nc3c(N)ncnc32)c1 [Example 35, 8-(2,5-Dimethoxy-phenylsulfanyl)-9-[2-(3-methoxy-phenyl)-ethyl]-9H-purin-6-ylamine]
32 | > 5 | COc1cccc(CCn2cnc(N)c3nc(Sc4cc(OC)ccc4OC)nc2-3)c1 [Example 36, 8-(2,5-dimethoxy-phenylsulfanyl)-3-[2-(3-methoxy-phenyl)-ethyl]-3H-purin-6-ylamine]
33 | 0.8 | COc1ccc(OC)c(Sc2nc3c(N)ncnc3n2CCc2cccc(F)c2)c1 [Example 37, 8-(2,5-Dimethoxy-phenylsulfanyl)-9-[2-(3-fluoro-phenyl)-ethyl]-9H-purin-6-ylamine]
34 | > 10 | COc1ccc(OC)c(Sc2nc3c(N)ncn(CCc4cccc(F)c4)c-3n2)c1 [Example 38, 8-(2,5-dimethoxy-phenylsulfanyl)-3-[2-(3-fluoro-phenyl)-ethyl]-3H-purin-6-ylamine]
35 | 8.1 | COc1cc(Sc2nc3c(N)ncnc3n2CCc2ccccc2)cc(OC)c1OC [Example 45, 9-Phenethyl-8-(3,4,5-trimethoxy-phensulfanyl)-9H-purin-6-ylamine]
36 | > 10 | COc1cc(Sc2nc3c(N)ncnc3n2CCCc2ccccc2)cc(OC)c1OC [Example 47, 9-(3-Phenyl-propyl)-8-(3,4,5-trimethoxy-phenylsulfanyl)-9H-purin-6-ylamine]
37 | 1.7 | COc1ccc(OC)c(Sc2nc3c(N)ncnc3n2CCc2c(C)cc(C)cc2C)c1 [Example 55, 8-(2,5-Dimethoxy-phenylsulfanyl)-9-[2-(2,4,6-trimethyl-phenyl)-ethyl]-9H-purin-6-ylamine]
38 | > 10 | COc1ccc(OC)c(Sc2nc3c(N)ncnc3n2CC2(c3ccc(Cl)cc3)CCC2)c1 [Example 61, 9-[1-(4-Chloro-phenyl)-cyclobutylmethyl]-8-(2,5-dimethoxy-phenylsulfanyl)-9H-purin-6-ylamine]
39 | > 5 | COc1ccc(OC)c(Sc2nc3c(N)ncnc3n2CCc2ccc(C(C)=O)cc2)c1 [Example 63, 1-(4-{2-[6-Amino-8-(2,5-dimethoxy-phenylsulfanyl)-purin-9-yl]-ethyl}-phenyl)-ethanone]
